Results on 23 molecules are retold here after article PMC10926851 (Journal of medicinal chemistry, 2021).

Molecules are shown by their SMILES. Entries after “also recorded” stand apart in the source; their conditions may differ. Read-outs that look alike come from different tables or passages of the source.

The target of series [1] is HDAC4 (Homo sapiens, UniProt P56524). The series is described as follows: HDAC4 activity assay. In kind it is biochemical. The settings on record: HDAC4 vs HDAC8.
Series [2] has as its system HeLa (cervical adenocarcinoma). The conditions noted are these: for SCI (CC50 HS-27/CC50 cancer), HeLa: selective cytotoxicity index.
In series [3] the test system is Ramos (Burkitt's B-cell lymphoma). The settings on record: selective cytotoxicity index.
In series [4] the test system is HeLa (cervical adenocarcinoma). As to the kind of experiment: cells. The conditions noted are these: Homo sapiens, 72 h, read-out: % cell death at 10 μM, HeLa.
In series [5] the target is T1, HDAC8 (Homo sapiens, UniProt Q9BY41).
T1 sequence (Q9BY41 1-377): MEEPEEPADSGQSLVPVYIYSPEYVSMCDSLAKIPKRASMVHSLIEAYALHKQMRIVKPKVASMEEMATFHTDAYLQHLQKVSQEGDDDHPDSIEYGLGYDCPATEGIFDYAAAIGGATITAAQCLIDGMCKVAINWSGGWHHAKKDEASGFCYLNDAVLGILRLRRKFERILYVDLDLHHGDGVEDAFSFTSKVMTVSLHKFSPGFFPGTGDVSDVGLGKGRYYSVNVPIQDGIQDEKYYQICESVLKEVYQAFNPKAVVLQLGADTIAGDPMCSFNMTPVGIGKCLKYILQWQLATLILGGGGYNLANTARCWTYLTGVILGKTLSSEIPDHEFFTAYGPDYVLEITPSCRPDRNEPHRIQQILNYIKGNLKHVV
As to the kind of experiment: HDAC8 activity assay. Type of series: biochemical. The settings on record: at tested concentrations.

Series [6] deals with CCRF-CEM (T-cell leukemia). The settings on record: for SCI (CC50 HS-27/CC50 cancer), CEM: selective cytotoxicity index; for cytotoxicity at 50 μM, CEM (printed in CC50 column): 72 h.
Series [7] concerns the target T2, PPARγ (Homo sapiens, UniProt P37231).
T2 sequence (P37231 238-503 limits assumed): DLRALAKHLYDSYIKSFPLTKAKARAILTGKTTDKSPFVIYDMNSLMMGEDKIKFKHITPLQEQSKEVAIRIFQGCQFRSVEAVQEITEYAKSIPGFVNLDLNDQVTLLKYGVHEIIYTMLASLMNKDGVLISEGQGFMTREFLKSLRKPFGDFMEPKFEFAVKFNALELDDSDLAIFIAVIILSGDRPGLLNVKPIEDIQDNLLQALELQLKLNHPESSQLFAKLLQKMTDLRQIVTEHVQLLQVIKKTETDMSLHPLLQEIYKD
As to the kind of experiment: PPARγ-GAL4 transactivation assay on HepG2 cells. In kind it is cell-based. The settings on record: HepG2, 25, 5 and 1 μM.

Series [8] deals with HS-27 (normal foreskin fibroblasts). As to the kind of experiment: DNS cytotoxicity assay, HS-27. In kind it is cell-based, human. The settings on record: 72 h, noncancerous cells.
Series [9] has as its system CEM (T cell leukemia) xenografts. The settings on record: mouse, in vivo.
The subject of series [10] is CCRF-CEM cells. As to the kind of experiment: Western blotting. In kind it is cell-based, human. The conditions noted are these: 10 μM, 5 h.

Chain of HDAC4 (P56524 655-1084 limits assumed): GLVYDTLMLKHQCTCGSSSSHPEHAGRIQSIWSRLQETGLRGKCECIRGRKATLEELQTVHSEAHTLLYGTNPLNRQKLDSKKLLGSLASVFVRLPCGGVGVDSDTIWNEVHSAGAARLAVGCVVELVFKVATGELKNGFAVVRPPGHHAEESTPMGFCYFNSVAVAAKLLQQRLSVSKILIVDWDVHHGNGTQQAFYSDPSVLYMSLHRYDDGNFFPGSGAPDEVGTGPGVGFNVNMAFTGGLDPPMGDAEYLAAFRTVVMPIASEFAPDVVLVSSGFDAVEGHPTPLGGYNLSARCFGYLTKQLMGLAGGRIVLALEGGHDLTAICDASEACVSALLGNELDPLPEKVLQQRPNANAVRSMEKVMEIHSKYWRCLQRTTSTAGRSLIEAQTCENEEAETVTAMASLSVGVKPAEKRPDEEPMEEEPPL

As to `CCOc1ccc2nc(NC(=O)COc3ccc4cc(/C=C5/SC(=O)NC5=O)ccc4c3)sc2c1` [7y, 2-((6-((2,4-Dioxothiazolidin-5-ylidene)methyl)naphthalen-2-yl)-oxy)-N-(6-ethoxybenzo[d]thiazol-2-yl)acetamide], the “potency toward HDAC4 over HDAC8 (from IC50 values)” value (from here on “potency toward HDAC4 over HDAC8”) in series [1] is recorded as “at least 2 fold”.

With `O=C(COc1ccc2cc(/C=C3/SC(=O)NC3=O)ccc2c1)Nc1nc2ccccc2s1` [7w, N-(Benzo[d]thiazol-2-yl)-2-((6-((2,4-dioxothiazolidin-5-ylidene)-methyl)naphthalen-2-yl)oxy)acetamide], the “potency toward HDAC4 over HDAC8” value in series [1] is given as “at least 2 fold”.

For `Cc1cccc(NC(=O)COc2ccc3cc(/C=C4/SC(=O)NC4=O)ccc3c2)n1` [7n, 2-((6-((2,4-Dioxothiazolidin-5-ylidene)methyl)naphthalen-2-yl)-oxy)-N-(6-methylpyridin-2-yl)acetamide], the “potency toward HDAC4 over HDAC8” value in series [1] is reported as “at least 2 fold”.

Regarding `COc1cccc(NC(=O)COc2ccc3cc(/C=C4/SC(=O)NC4=O)ccc3c2)c1` [7g, 2-((6-((2,4-Dioxothiazolidin-5-ylidene)methyl)naphthalen-2-yl)-oxy)-N-(3-methoxyphenyl)acetamide], in [1], the “potency toward HDAC4 over HDAC8” value was “at least 2 fold”. In series [2], the “SCI (CC50 HS-27/CC50 cancer), HeLa” value was >10. The “SCI (CC50 HS-27/CC50 cancer), Ramos” value in series [3] is listed as >10. In [4], the cytotoxicity at 10 µM was > 40%.

Turning to `O=C(COc1ccc2cc(/C=C3/SC(=O)NC3=O)ccc2c1)Nc1ccc(F)cc1` [7b, 2-((6-((2,4-Dioxothiazolidin-5-ylidene)methyl)naphthalen-2-yl)-oxy)-N-(4-fluorophenyl)acetamide], the “potency toward HDAC4 over HDAC8” value in [1] is given as “at least 2 fold”.

With `O=C(COc1ccc2cc(/C=C3/SC(=O)NC3=O)ccc2c1)Nc1ccc(Cl)c(Cl)c1` [7h, N-(3,4-Dichlorophenyl)-2-((6-((2,4-dioxothiazolidin-5-ylidene)-methyl)naphthalen-2-yl)oxy)acetamide], the “HDAC8 inhibition (in words)” value in series [5] was “inactive; also recorded: not active”.

As to `O=C(COc1ccc2cc(/C=C3/SC(=O)NC3=O)ccc2c1)Nc1ccccc1` [7a, 2-((6-((2,4-Dioxothiazolidin-5-ylidene)methyl)naphthalen-2-yl)-oxy)-N-phenylacetamide], the “potency toward HDAC4 over HDAC8” value in series [1] is given as “at least 2 fold”.

On to `Cc1cccc2sc(NC(=O)COc3ccc4cc(/C=C5/SC(=O)NC5=O)ccc4c3)nc12` [7x, 2-((6-((2,4-Dioxothiazolidin-5-ylidene)methyl)naphthalen-2-yl)-oxy)-N-(4-methylbenzo[d]thiazol-2-yl)acetamide], for which, in series [1], the “potency toward HDAC4 over HDAC8” value is recorded as “at least 2 fold”.

Turning to `O=C(COc1ccc2cc(/C=C3/SC(=O)NC3=O)ccc2c1)Nc1c(F)cc(F)cc1Br` [7i, N-(2-Bromo-4,6-difluorophenyl)-2-((6-((2,4-dioxothiazolidin-5-ylidene)methyl)naphthalen-2-yl)oxy)acetamide], the “HDAC8 inhibition (in words)” value in series [5] was “inactive”. Moreover, the “SCI (CC50 HS-27/CC50 cancer), HeLa” value in [2] is recorded as 3.8. Further, the “SCI (CC50 HS-27/CC50 cancer), Ramos” value in [3] was 4.2. For the same molecule, the “SCI (CC50 HS-27/CC50 cancer), CEM” value in series [6] was 4.2.

As for `O=C(COc1ccc2cc(/C=C3/SC(=O)NC3=O)ccc2c1)Nc1ccc(Br)cc1F` [7r, N-(4-Bromo-2-fluorophenyl)-2-((6-((2,4-dioxothiazolidin-5-ylidene)methyl)naphthalen-2-yl)oxy)acetamide], in [5], the “HDAC8 inhibition (in words)” value is “inactive”.

In the case of `O=C(COc1ccc2cc(/C=C3/SC(=O)NC3=O)ccc2c1)Nc1ccc(Br)c(Br)c1` [7v, N-(3,4-Dibromophenyl)-2-((6-((2,4-dioxothiazolidin-5-ylidene)-methyl)naphthalen-2-yl)oxy)acetamide], in series [5], the “HDAC8 inhibition (in words)” value is recorded as “not active”. In addition, the “PPARγ transactivation activity (in words)” value in [7] is “poor activity”.

As for `Cc1ccc(NC(=O)COc2ccc3cc(/C=C4/SC(=O)NC4=O)ccc3c2)cc1Cl` [7u, N-(3-Chloro-4-methylphenyl)-2-((6-((2,4-dioxothiazolidin-5-ylidene)methyl)naphthalen-2-yl)oxy)acetamide], in [5], the “HDAC8 inhibition (in words)” value is “not active”.

In the case of `O=C(COc1ccc2cc(/C=C3/SC(=O)NC3=O)ccc2c1)Nc1ccc(F)cc1F` [7k, N-(2,4-Difluorophenyl)-2-((6-((2,4-dioxothiazolidin-5-ylidene)-methyl)naphthalen-2-yl)oxy)acetamide], the “HDAC8 inhibition (in words)” value in series [5] is “inactive”.

`CCc1ccc(CCOc2ccc(CC3SC(=O)NC3=O)cc2)nc1` (stereo not shown) [Pioglitazone, reference compound]: the “cytotoxicity at 10 μM, HeLa (printed in CC50 column)” value in [2] (10 μM, 72 h) is listed as 0% @ 10 μM. In addition, the results for the “cytotoxicity at 50 μM, CEM (printed in CC50 column)” value in series [6] and in series [6] (listed as pioglitazone) were 0% @ 50 μM and “no cytotoxic effect”, respectively.

For `O=C(COc1ccc2cc(/C=C3/SC(=O)NC3=O)ccc2c1)Nc1cccc(Cl)c1` [7f, N-(3-Chlorophenyl)-2-((6-((2,4-dioxothiazolidin-5-ylidene)-methyl)naphthalen-2-yl)oxy)acetamide], in series [5], the “HDAC8 inhibition (in words)” value is “did not show HDAC8 inhibition”. In addition, the “SCI (CC50 HS-27/CC50 cancer), Ramos” value in [3] is on record as >10.

As to `O=C(COc1ccc2cc(/C=C3/SC(=O)NC3=O)ccc2c1)Nc1ccc(Br)cc1` [7o, N-(4-Bromophenyl)-2-((6-((2,4-dioxothiazolidin-5-ylidene)-methyl)naphthalen-2-yl)oxy)acetamide], the “SCI (CC50 HS-27/CC50 cancer), HeLa” value in series [2] is on record as >10.

Regarding `O=C(COc1ccc2cc(/C=C3/SC(=O)NC3=O)ccc2c1)Nc1ccccc1Oc1ccccc1` [7j, 2-((6-((2,4-Dioxothiazolidin-5-ylidene)methyl)naphthalen-2-yl)-oxy)-N-(2-phenoxyphenyl)acetamide], the “SCI (CC50 HS-27/CC50 cancer), HeLa” value in series [2] was >10. Further, the “SCI (CC50 HS-27/CC50 cancer), Ramos” value in series [3] is >10. In addition, the cytotoxicity at 10 µM in series [4] was > 40%. Moreover, the “% cell death at 10 μM, HS-27” value in [8] stood at 0%.

Take `COc1cccc2c1C(=O)c1c(O)c3c(c(O)c1C2=O)C[C@@](O)(C(=O)CO)C[C@@H]3O[C@H]1C[C@H](N)[C@H](O)[C@H](C)O1` [doxorubicin, reference compound]: the “body weights of the mice” value in series [9] was “not significantly affected”.

Consider `O=C(COc1ccc2cc(/C=C3/SC(=O)NC3=O)ccc2c1)Nc1cccc(F)n1` [7s, 2-((6-((2,4-Dioxothiazolidin-5-ylidene)methyl)naphthalen-2-yl)-oxy)-N-(6-fluoropyridin-2-yl)acetamide], for which the “potency toward HDAC4 over HDAC8” value in series [1] is listed as “at least 2 fold”.

For `O=C(COc1ccc2cc(/C=C3/SC(=O)NC3=O)ccc2c1)Nc1cc(Cl)cc(C(F)(F)F)c1` [7p, N-(3-Chloro-5-(trifluoromethyl)phenyl)-2-((6-((2,4-dioxothiazoli-din-5-ylidene)methyl)naphthalen-2-yl)oxy)acetamide], the “HDAC8 inhibition (in words)” value in [5] is “did not show HDAC8 inhibition”.

Turning to `O=C(COc1ccc2cc(/C=C3/SC(=O)NC3=O)ccc2c1)Nc1cccc(C(F)(F)F)c1` [7e, 2-((6-((2,4-Dioxothiazolidin-5-ylidene)methyl)naphthalen-2-yl)-oxy)-N-(3-(trifluoromethyl)phenyl) acetamide], the “HDAC8 inhibition (in words)” value in [5] was “did not show HDAC8 inhibition”. Also, the “% cell death at 10 μM, HS-27” value in series [8] is given as >40%.

Consider `Cc1cc(Br)ccc1NC(=O)COc1ccc2cc(/C=C3/SC(=O)NC3=O)ccc2c1` [7l, N-(4-Bromo-2-methylphenyl)-2-((6-((2,4-dioxothiazolidin-5-ylidene)methyl)naphthalen-2-yl)oxy)acetamide], for which the “SCI (CC50 HS-27/CC50 cancer), HeLa” value in series [2] is >10.

On to `Cc1ccc(NC(=O)COc2ccc3cc(/C=C4/SC(=O)NC4=O)ccc3c2)cc1` [7c, 2-((6-((2,4-Dioxothiazolidin-5-ylidene)methyl)naphthalen-2-yl)-oxy)-N-(p-tolyl)acetamide], for which the “SCI (CC50 HS-27/CC50 cancer), HeLa” value in series [2] was determined as 3.9. Besides, in series [9], the “body weights of the mice” value is reported as “not significantly affected”. Further, the “SCI (CC50 HS-27/CC50 cancer), Ramos” value in [3] is 5.8. In addition, in series [10], the p53 expression entry was “no upregulated expression was observed”. For the same molecule, in series [10] (vs pioglitazone 10 μM), the c-Myc protein expression result was “downregulation of the c-Myc protein much greater than positive control pioglitazone” and the “cleaved caspase-3 expression” value is reported as “increased expression of cleaved caspase-3”. In series [6], the “SCI (CC50 HS-27/CC50 cancer), CEM” value came out at 14.4.
